Reference: US5466716A, “Liposomal trimethylsphingosine” (The Biomembrane Institute, priority 1994, dated 1995)

What was measured:
MKN-74 cells = assay: comparative effect of reagents on MKN-74 tumor cell growth/differentiation; format: cell-based, human; settings: MKN-74, FIG. 3, compared with DMS, SPN, cAMP derivatives, HMBA
From the text: FIG. 3 depicts the comparative effect of various reagents on tumor cell differentiation. MKN-74 cells were exposed to N,N,N-trimethylsphingosine (open squares), N,N-dimethylsphingosine (open circles), 8-chloro-cyclic AMP (open triangles), dibutyryl cyclic AMP (solid triangles), sphingosine (solid circles) and hexamethylenebisacetamide (solid squares).
An in vitro assay relying on tritiated thymidine incorporation can be used to ascertain the effect of various compounds on cell proliferation. Briefly, tumor cells are seeded in flat bottom 96 well plates (Corning, N.Y.) at a concentration of 2×10^4 cells per well. The cells are cultured for 2 days in DMEM containing various concentrations of sphingoid, which is added as a PBS solution. The medium then is supplemented with tritiated thymidine at a concentration of 0.5 μCi per well. Following a six hour incubation the cells are collected using the PHD Cell Harvester (Cambridge Technology, Cambridge, Mass.) and amounts of incorporated radioactivity are determined after adding a suitable cell lysing agent and scintillation cocktail, such as ScintiVerse BD (Fisher Scientific, Fairlawn, Calif.) which performs both functions.
MKN-74 cells were exposed to cAMP and derivatives thereof and to HMBA, which are known to inhibit tumor cell growth by differentiation induction.

protein kinase-C = protein kinase-C activity (A431 cell PK-C, liposome method, histone III-S or myelin basic protein); format: biochemical, human; settings: histone III-S and myelin basic protein substrates, FIG. 4
From the text: FIGS. 4A and 4B depict the effect of sphingosine derivatives on protein kinase-C activity in A431 cells. The standard liposome method of Kraft and Anderson (Nature 301, 621, 1983) was used. […] In FIG. 4B radioactive incorporation into histone III-s is depicted on the ordinate. In both panels SP represents sphingosine, MMS represents N-monomethylsphingosine, DMS represents N,N-dimethylsphingosineand TMS represents N,N,N-trimethylsphingosine.
In another in vitro assay, the influence of various compounds on PK-C activity can be monitored. Certain tumor cells present high levels of PK-C activity. The human epidermoid carcinoma cell line A-431 (ATCC No. CRL 1555) can be used in a bioassay for PK-C activity as described in Igarashi et al. (supra). Briefly, phosphatidylserine (5 μg/tube) and 1,2-diolein (0.05 μg/tube), with or without an appropriate quantity of a sphingosine derivative sample, are added in an organic solvent, ethanol or ethanol/chloroform, to a 1.5 ml tube (Sarstedt) and the mixture is evaporated under a N2 stream. The lipid mixture is sonicated in about 30 μl of 20 mM Tris-HCl (pH 7.5) for 30 minutes. The resulting liposomes are supplemented with a buffer mixture comprising 25 mM Tris-HCl (pH 7.5), 10 mM MgCl2, 400 μM EDTA, 50 μM EGTA, 500 μM CaCl2, 200 μg/ml histone III-S or myelin basic protein and 20 μM γ[^32 P]-ATP (2×10^6 cpm) to a final volume of about 90 μl. […]

CCCCCCCCCCCCC/C=C/[C@@H](O)[C@H](CO)[N+](C)(C)C [TMS, N,N,N-trimethylsphingosine]
inhibition of tumor cell growth (MKN-74 cells): most effective inhibitor of tumor cell growth | ability to inhibit PK-C (protein kinase-C): superior to the other compounds
